Test: xn = mol fraction of the nth substance listed
Conditions: 101 kPa

## CCCC[n+]1ccn(C)c1.F[P-](F)(F)(F)(F)F + O
293.2 K, x2 = 0.05
  electrical conductivity: 0.181 S/m
293.2 K, x2 = 0.15
  electrical conductivity: 0.235 S/m
293.2 K, x2 = 0.2
  electrical conductivity: 0.29 S/m
298.2 K, x2 = 0.1
  electrical conductivity: 0.268 S/m
298.2 K, x2 = 0.2
  electrical conductivity: 0.364 S/m
303.2 K, x2 = 0.05
  electrical conductivity: 0.291 S/m
303.2 K, x2 = 0.1
  electrical conductivity: 0.331 S/m
303.2 K, x2 = 0.15
  electrical conductivity: 0.382 S/m
303.2 K, x2 = 0.2
  electrical conductivity: 0.448 S/m
308.2 K, x2 = 0.05
  electrical conductivity: 0.351 S/m
308.2 K, x2 = 0.15
  electrical conductivity: 0.469 S/m
313.2 K, x2 = 0.05
  electrical conductivity: 0.423 S/m
313.2 K, x2 = 0.1
  electrical conductivity: 0.488 S/m
313.2 K, x2 = 0.2
  electrical conductivity: 0.652 S/m
318.2 K, x2 = 0.1
  electrical conductivity: 0.563 S/m
318.2 K, x2 = 0.15
  electrical conductivity: 0.675 S/m
323.2 K, x2 = 0.05
  electrical conductivity: 0.592 S/m
323.2 K, x2 = 0.15
  electrical conductivity: 0.792 S/m
323.2 K, x2 = 0.2
  electrical conductivity: 0.911 S/m
333.2 K, x2 = 0.05
  electrical conductivity: 0.701 S/m
333.2 K, x2 = 0.1
  electrical conductivity: 0.797 S/m
333.2 K, x2 = 0.15
  electrical conductivity: 0.923 S/m
343.2 K, x2 = 0.05
  electrical conductivity: 0.833 S/m
343.2 K, x2 = 0.1
  electrical conductivity: 0.928 S/m
343.2 K, x2 = 0.2
  electrical conductivity: 1.23 S/m
353.2 K, x2 = 0.05
  electrical conductivity: 1.06 S/m
353.2 K, x2 = 0.1
  electrical conductivity: 1.22 S/m

From a compilation of properties of binary mixtures (doi:10.1016/j.jtice.2008.09.006)
